Columns and labels:
HMC3 cells = experiment: High‐content imaging assay; type: cell-based
BV2 cells = experiment: High‐content imaging assay; type: cell-based, mouse
human SHIP1 Ptase‐C2 = biological target: T1, human SHIP1 Ptase‐C2 (Homo sapiens, UniProt Q92835); experiment: Malachite green enzyme assay, hSHIP1^395‐898 Ptase‐C2, substrate PtdIns; type: biochemical
T1 sequence (Q92835 395-898): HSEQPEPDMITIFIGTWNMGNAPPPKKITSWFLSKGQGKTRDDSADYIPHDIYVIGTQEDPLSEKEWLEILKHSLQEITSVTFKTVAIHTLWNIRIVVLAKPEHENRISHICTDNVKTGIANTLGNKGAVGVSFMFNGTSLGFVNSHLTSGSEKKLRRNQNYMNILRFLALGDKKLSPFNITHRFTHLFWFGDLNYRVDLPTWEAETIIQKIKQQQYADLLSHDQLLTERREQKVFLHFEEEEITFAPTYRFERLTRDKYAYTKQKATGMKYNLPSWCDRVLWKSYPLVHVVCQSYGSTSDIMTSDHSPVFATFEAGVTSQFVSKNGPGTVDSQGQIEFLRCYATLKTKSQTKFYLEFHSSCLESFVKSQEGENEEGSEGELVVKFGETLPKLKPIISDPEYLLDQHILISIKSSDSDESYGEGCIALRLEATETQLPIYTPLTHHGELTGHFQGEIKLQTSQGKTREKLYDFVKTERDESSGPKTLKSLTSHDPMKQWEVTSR

[1] = biological target: T2, HiBit‐SHIP1 (full‐length human SHIP1) (Homo sapiens, UniProt Q92835); experiment: SplitLuc cellular thermal shift assay; type: cell-based; conditions: for CETSA % (percent luminescence at the highest dose): highest dose (100 μM); for CETSA TE (target engagement): significant if difference from control at highest dose >3SD
T2 sequence (Q92835 1-1189): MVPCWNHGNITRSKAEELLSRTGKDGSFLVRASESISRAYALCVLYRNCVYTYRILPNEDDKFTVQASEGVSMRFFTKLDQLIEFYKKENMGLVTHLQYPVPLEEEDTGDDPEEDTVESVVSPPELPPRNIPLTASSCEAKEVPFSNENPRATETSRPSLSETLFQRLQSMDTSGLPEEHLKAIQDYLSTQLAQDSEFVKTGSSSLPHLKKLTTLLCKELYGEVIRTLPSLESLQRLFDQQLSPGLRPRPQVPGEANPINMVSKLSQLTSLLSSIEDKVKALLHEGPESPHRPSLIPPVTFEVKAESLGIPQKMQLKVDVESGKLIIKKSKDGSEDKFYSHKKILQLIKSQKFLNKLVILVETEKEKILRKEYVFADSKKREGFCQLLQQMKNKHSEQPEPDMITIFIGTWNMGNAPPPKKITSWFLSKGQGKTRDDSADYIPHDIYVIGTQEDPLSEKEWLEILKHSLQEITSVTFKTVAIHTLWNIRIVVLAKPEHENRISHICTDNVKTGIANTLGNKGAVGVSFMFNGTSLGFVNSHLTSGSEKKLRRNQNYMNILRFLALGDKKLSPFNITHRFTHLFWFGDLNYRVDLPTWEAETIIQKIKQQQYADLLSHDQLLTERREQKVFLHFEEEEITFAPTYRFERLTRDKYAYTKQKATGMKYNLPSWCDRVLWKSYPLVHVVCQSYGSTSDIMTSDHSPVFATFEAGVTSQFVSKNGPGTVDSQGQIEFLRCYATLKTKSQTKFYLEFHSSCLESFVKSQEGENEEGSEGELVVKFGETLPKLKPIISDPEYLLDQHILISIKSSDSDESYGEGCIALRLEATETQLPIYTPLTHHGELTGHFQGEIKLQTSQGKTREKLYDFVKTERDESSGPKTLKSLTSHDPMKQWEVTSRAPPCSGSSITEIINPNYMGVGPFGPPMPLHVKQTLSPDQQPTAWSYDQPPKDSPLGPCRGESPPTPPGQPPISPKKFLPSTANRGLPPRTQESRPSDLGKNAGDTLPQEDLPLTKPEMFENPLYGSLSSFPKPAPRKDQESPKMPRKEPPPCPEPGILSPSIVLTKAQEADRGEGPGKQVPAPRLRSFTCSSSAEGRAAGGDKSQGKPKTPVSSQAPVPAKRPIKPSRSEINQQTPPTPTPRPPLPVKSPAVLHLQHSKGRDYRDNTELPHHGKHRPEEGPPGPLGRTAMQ

primary mouse microglia = experiment: High‐content imaging phagocytosis assay in primary mouse microglia; type: cell-based

Row | Structure (SMILES) | cellular phenotype in high‐content imaging (in words) (HMC3 cells) | cellular phenotype in high‐content imaging (in words) (BV2 cells) | IC50 (human SHIP1 Ptase‐C2) | AC50 [1] | CETSA % (percent luminescence at the highest dose) [1] | CETSA TE (target engagement) [1] | EC50 (primary mouse microglia; Mus musculus, Microglia, read-out: phagocytosis EC50) | increased phagocytosis (primary mouse microglia; primary mouse microglia from neonate mice)
1 | CC(=O)C1=C(C)Nc2sc(C(=O)c3ccc(Cl)c(Cl)c3)c(N)c2C1c1cccnc1 (stereo not shown) [Compound 2] | inactive | inactive | 18.6 µM | 46 ± 5 µM | 30 ± 7 (2) % | Yes | – | –
2 | CC(C)c1ccc(C2C(C#N)=C3N=C(N)c4ccccc4N3C3=C2C(=O)CCC3)cc1 (stereo not shown) [Compound 3] | – | – | 26.8 µM | 173 µM | 63 ± 12 (2) % | Yes | – | –
3 | CC(C)CCC[C@@H](C)[C@H]1CC[C@H]2[C@@H]3CCC4C[C@H](N)CC[C@]4(C)[C@H]3CC[C@]12C (stereo partly drawn) [Compound 13, 3α‐aminocholestane, reference compound] | – | – | 201 µM | – | – | – | – | –
4 | Clc1ccc(COc2cncc(-c3cnn(C4CCNCC4)c3)c2)c(Cl)c1 [Compound 23, 3‐((2,4‐Dichlorobenzyl)oxy)‐5‐(1‐(piperidin‐4‐yl)‐1H‐pyrazol‐4‐yl)pyridine, reference compound] | – | – | 251 µM | – | 27 ± 15 (3) % | Yes | 0.54 µM | 1.5 fold

Reference: article PMC10655782 (Alzheimer's & Dementia : Translational Research & Clinical …, 2023)
